# From patent US9138512B2, “Implant with a surface layer having a topographic modification” (Biotronik AG, priority 2010, dated 2015)
# How the values were obtained:
# [1] = system: Human umbilical vein endothelial cells (HUVEC); experiment: Time to onset of spreading of HUVEC on substrates (time-lapse microscopy); format: cell-based; conditions: HUVEC on gratings A-10, 50 μM blebbistatin, 10 μM Y27632 or 30 μM ML-7 added 30 minutes before
# Method: To generate confluent monolayers cells were seeded on COC substrates at high density (60-70×10^4 cell/cm^2) as reported by Lampugnani et al. and cultured for three days. To measure the time to onset of spreading, cells were detached from a subconfluent cell culture and resuspended in pre-warmed medium without antibiotics. The cells were then counted, diluted to reach a concentration of 5×10^4 cells in 1 ml of medium and then seeded onto the substrates.
# (§1) For contractility inhibition experiments during endothelial spreading, the cells were treated with DMSO (corresponding v/v), 30 μM ML-7, 10 μM Y27632 or 50 μM blebbistatin. The drugs were dissolved in DMSO (ML-7, blebbistatin) or in distilled water (Y27632) and added to the cells 30 minutes before starting the experiment.
# Cell imaging was performed using an inverted Nikon-Ti wide-field microscope (Nikon, Jaw pan) equipped with an Orca R-2 CCD camera (Hamamatsu Photonics, Japan). After cell seeding, the topographic chip was placed under the microscope in an incubated chamber (Life Imaging Services, Switzerland), where temperature and CO2 concentration were maintained at 37° C. and 5%, respectively. Images were collected with a 20×, 0.45 NA long-distance objective (Plan Fluor, Nikon). Endothelial spreading on topographic substrates in topographic chips was recorded in parallel time-lapse movies for up to 6 different substrates (a flat control and five different gratings). Before starting the experiment, five non-overlapping positions were chosen within each substrate and stored in a position list. Immediately after cell seeding, the experiment was started to automatically acquire a differential interference contrast (DIC) image at each saved position with a time resolution of 1 minute for a total of one or two hours. Focal drift during the experiments was eliminated using the microscope's PFS autofocus system. At the end of the experiment, the resulting time-lapses were converted into a single 8 bit movie for each imaging field under analysis.
# (§2) Collected movies were loaded into ImageJ (National Institutes of Health, USA) and analyzed as follows: In a first step, movies acquired on patterned substrates were filtered by Fast Fourier Transform (FFT). This procedure eliminates the scattering generated by the gratings. The time to onset of spreading on the respective substrates was then measured for each cell detected within all parallel time-lapses acquired. […] A mean time to onset of spreading was calculated for each substrate under analysis by averaging the values measured for all individual cells. HUVEC alignment to the gratings was measured for all cells detected in the last frame of each recorded movie. […]
# [2] = system: Human umbilical vein endothelial cells (HUVEC); experiment: HUVEC alignment to the gratings (contact guidance); format: cell-based; conditions: HUVEC on gratings A-10; 50 μM blebbistatin or 10 μM Y27632
# Method: as §1
# Cell imaging was performed using an inverted Nikon-Ti wide-field microscope (Nikon, Jaw pan) equipped with an Orca R-2 CCD camera (Hamamatsu Photonics, Japan). […] Endothelial spreading on topographic substrates in topographic chips was recorded in parallel time-lapse movies for up to 6 different substrates (a flat control and five different gratings). […]
# as §2, with “This procedure eliminates the scattering generated by the gratings.” left out
Compound,effect of inhibitor on time to onset of spreading / spreading [1],average alignment of inhibitor-treated cells to gratings [2],effect of inhibitor on time to onset of spreading / spreading ([1]; listed as ML7)
Cc1ccc2c(c1)C(=O)C1(O)CCN(c3ccccc3)C1=N2 (stereo not drawn) [Blebbistatin],no effect,26.5±6.5 °,
O=S(=O)(c1cccc2c(I)cccc12)N1CCCNCC1 [ML-7],No spreading could be measured,,completely ablates HUVEC spreading
C[C@@H](N)[C@H]1CC[C@H](C(=O)Nc2ccncc2)CC1 [Y27632],no effect,24.7±6.4 °,
